# According to patent US9492428B2, “Compounds, compositions, pharmaceutical compositions, and methods of use” (University of Louisville Research Foundation, Inc., priority 2011, dated 2016):
# Columns and labels:
# Assay type in all cases: cell-based, human
# PC3 cells [1] = test: Flow cytometric analysis of cell cycle (propidium iodide) in PC3; conditions: 10 μM
# Protocol: (§1) FIG. 11. Compound I-1 induces cell cycle arrest and apoptosis in PC3 cells. Prostate cancer cells were left untreated (−) or treated with compound I-1 (10 μM) or with vehicle (DMSO) for the time indicated in the figure. (A) For flow cytometric analysis of cell cycle parameters, cells were fixed, and stained with propidium iodide. Each histogram indicates the percent of cells in G1, S, and G2/M phases of the cell cycle. Data were gated to exclude apoptotic cells for these calculations. (B) After treatment, cells were lysed and total lysates were analyzed for cellular apoptotic markers by immunoblotting using anti-PARP-1 or anti-cleaved Caspase-3 antibodies. Anti-GAPDH-1 antibody was used as loading control. (C) Some 48 h-treated PC3 cells were harvest by trypsinization, washed with PBS, and total DNA was extracted then analyzed on a 1.8% agarose gel. M indicates DNA size marker (base pairs).
# Flow cytometric assays of cell cycle and cell death. Cells in fresh complete medium were plated (2×10^5 per well) into six-well plates for 18 h. After complete adhesion, cells were treated as indicated in the figures and harvested by trypsinization. […] Cells were then analyzed by flow cytometry using a FACScalibur cytometer (BD Biosciences, Mountain View, Calif.) and FlowJo program (Tree Star, Inc., Ashland, Oreg.).
# DU145 cells [2] = test: Flow cytometric analysis of cell cycle (propidium iodide) in DU145
# Protocol: FIG. 9. Effect of compound I-1 at 5 μM on cell cycle and apoptosis. Cells were then harvested by trypsinization. (A) For flow cytometric analysis of cell cycle parameters, cells were fixed, and stained with propidium iodide. Each histogram indicates the percent of cells in G1, S, and G2/M phases of the cell cycle. Data were gated to exclude apoptotic cells for these calculations. (B) For apoptosis detection, cells were incubated with FITC-conjugated Annexin V and propidium iodide. Flow cytometric analysis was performed and the histogram for each sample was split into four quadrants to indicate: viable cells (lower left quadrant), apoptotic cells (lower right quadrant), necrotic cells (upper left quadrant), and necrotic/late apoptotic cells (upper right quadrant).
# FIG. 10. Flow cytometric analysis of cell cycle parameters. DU145 prostate cancer cells were incubated for 24 h (A) or for 48 h (B) in the presence of 10 μM compound I-1 or vehicle (DMSO), or without additive (untreated). Cells were then harvested by trypsinization, fixed, and stained with propidium iodide for analysis by flow cytometry. Each histogram indicates the percent of cells in G1, S, and G2/M phases of the cell cycle. Data were gated to exclude apoptotic cells for these calculations. A small population of aneuploid cells with >4n DNA content, which became apparent in the cells treated with compound I-1, is also indicated (percentage underlined).
# Flow cytometric assays of cell cycle and cell death. Cells in fresh complete medium were plated (2×10^5 per well) into six-well plates for 18 h. After complete adhesion, cells were treated as indicated in the figures and harvested by trypsinization. For cell cycle distribution, cells were fixed, and stained with propidium iodide using the Cycle Test Plus kit (Becton Dickinson). For cell death detection, cells were stained with Annexin-V-FITC and propidium iodide using the Apoptosis Detection Kit (BD Biosciences), according to the manufacturer's instructions. Cells were then analyzed by flow cytometry using a FACScalibur cytometer (BD Biosciences, Mountain View, Calif.) and FlowJo program (Tree Star, Inc., Ashland, Oreg.).
# DU145 cells [3] = test: Trypan blue exclusion assay (cell death); conditions: 10 μM, 72 h
# Protocol: FIG. 12. Trypan blue exclusion assay to determine cell death. DU145 prostate cancer cells were left untreated or treated with 10 μM compound I-1 or with vehicle (DMSO) for 72 h. After treatment, all cells (both adherent and floating) were harvested, stained with trypan blue, and counted immediately to determine the percentage of non-viable cells (stained blue). Columns represent the mean of three independent experiments, bars represent standard error, and numbers above each column represent the percentage of blue cells in the sample.
# Compound I-1 promotes cell death by apoptosis. Because prolonged cell cycle arrest can cause induction of cell death, we next investigated the viability of prostate cancer cells treated with compound I-1. To begin, we used the trypan blue exclusion assay, which is based on the principle that live cells will exclude membrane-impermeable dyes such as trypan blue, whereas trypan blue will get inside the dead cells and stain them. […] To determine whether apoptosis (programmed cell death) is the cause of cell death induced by compound I-1, we examined the cells for biochemical and morphological markers of apoptosis. […]
# PC3 cells [4] = test: Immunoblotting of apoptotic markers (cleaved caspase-3, PARP-1) in PC3; conditions: 10 μM, FIG. 11B
# Protocol: as §1
# Cell Culture and Treatment. All cells were obtained from ATCC and were grown in a humidified incubator at 37° C. with 5% CO2. […] All protein concentrations were determined using the bicinchoninic acid (BCA) protein assay (Pierce, Rockford, Ill.).
# Immunoblotting. […] Antibody-reactive proteins were detected using a chemiluminescence substrate (SuperSignal; Pierce, Rockford, Ill.) according to the manufacturer's instructions. […]
smiles,measurement,setting,value
C[C@@H]1CC[C@H]2C3C(O[C@]4([C@]5(O)CC6(C)C(=O)OC5C[C@@]6(C)O)CC[C@@]31O4)[C@H]1O[C@]13CC=CC(=O)[C@]23C (some centres unmarked) [I-1],G2/M arrest,PC3 cells [1],able to cause G2/M arrest
same,cell cycle parameters,DU145 cells [2]; 5 μM,not perturbed
same,population of aneuploid cells that contain more than 4n DNA,DU145 cells [2]; 10 μM,additional peak to the right of the G2/M peak
same,fraction of cells in phase,"DU145 cells [2]; 10 μM, 24 h",8%
same,proportion of cells in G2/M phases,"DU145 cells [2]; 10 μM, 24 h",49%
same,proportion of cells in S phase,"DU145 cells [2]; 10 μM, 24 h",37%
same,fraction of cell in G2/M,"DU145 cells [2]; 10 μM, 48 h",66%
same,percentage of cells in S phase,"DU145 cells [2]; 10 μM, 48 h",decreased
same,dead cells (trypan blue),DU145 cells [3],~90%
same,activation of caspase-3,PC3 cells [4],able to induce
same,cleavage of PARP-1,PC3 cells [4],able to induce
